Assay results taken from US20260262643A1, “HERBICIDAL BENZOXAZINES” (FMC CORPORATION, priority 2022, published 2026).

Tests used:
ryegrass, Italian [1] = assay: Test C postemergence; type: in vivo, Lolium multiflorum; details: 10 days, 0 to 100 scale (0 no effect, 100 complete control)
Method in brief: (§1)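 Test material, in non-phytotoxic solvent with surfactant, was sprayed on the soil directly after seeding (preemergence) or on young plants of 2–10 cm with one to two leaves (postemergence). Greenhouse, 10 days; 0–100 visual control scale.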

barnyardgrass [2] = assay: Test C preemergence; type: in vivo, Echinochloa crusgalli
Method in brief: as §1

galium = assay: Test C postemergence; type: in vivo, Galium aparine; details: 10 days, 0 to 100 scale (0 no effect, 100 complete control)
Method in brief: as §1

rice = assay: Test D flooded paddy test; type: in vivo, Oryza sativa; details: 250 g ai/ha, applied to paddy water, visual rating after 13 to 14 days, scale 0 to 100 (0 no effect, 100 complete control)
Method in brief: (§2)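 Visual ratings from 0, meaning no effect, to 100, meaning complete control, were assigned against untreated controls 13 to 14 days after compounds were added to the floodwater of pots kept 3 cm deep, with plants at the 2-leaf stage.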

ragweed [3] = assay: Test C preemergence; type: in vivo, Ambrosia artemisiifolia
Method in brief: as §1

soybean [4] = assay: Test C preemergence; type: in vivo, Glycine max
Method in brief: as §1

wheat [5] = assay: Test C preemergence; type: in vivo, Triticum aestivum
Method in brief: as §1

wheat [6] = assay: Test C postemergence; type: in vivo, Triticum aestivum; details: 10 days, 0 to 100 scale (0 no effect, 100 complete control)
Method in brief: as §1

barnyardgrass [7] = assay: Test D flooded paddy test; type: in vivo, Echinochloa crus-galli; details: 250 g ai/ha, applied to paddy water, visual rating after 13 to 14 days, scale 0 to 100 (0 no effect, 100 complete control)
Method in brief: as §2

pigweed, palmer [8] = assay: Test C preemergence; type: in vivo, Amaranthus palmeri
Method in brief: as §1

corn [9] = assay: Test C preemergence; type: in vivo, Zea mays
Method in brief: as §1

blackgrass [10] = assay: Test C preemergence; type: in vivo, Alopecurus myosuroides
Method in brief: as §1

oat, wild [11] = assay: Test C postemergence; type: in vivo, Avena fatua; details: 10 days, 0 to 100 scale (0 no effect, 100 complete control)
Method in brief: as §1

kochia [12] = assay: Test C postemergence; type: in vivo, Bassia scoparia; details: 10 days, 0 to 100 scale (0 no effect, 100 complete control)
Method in brief: as §1

oat, wild [13] = assay: Test C preemergence; type: in vivo, Avena fatua
Method in brief: as §1

kochia [14] = assay: Test C preemergence; type: in vivo, Bassia scoparia
Method in brief: as §1

soybean [15] = assay: Test C postemergence; type: in vivo, Glycine max; details: 10 days, 0 to 100 scale (0 no effect, 100 complete control)
Method in brief: as §1

green foxtail [16] = assay: Test C postemergence; type: in vivo, Setaria viridis; details: 10 days, 0 to 100 scale (0 no effect, 100 complete control)
Method in brief: as §1

sedge, umbrella = assay: Test D flooded paddy test; type: in vivo, Cyperus difformis; details: 250 g ai/ha, applied to paddy water, visual rating after 13 to 14 days, scale 0 to 100 (0 no effect, 100 complete control)
Method in brief: as §2

barnyardgrass [17] = assay: Test C postemergence; type: in vivo, Echinochloa crusgalli; details: 10 days, 0 to 100 scale (0 no effect, 100 complete control)
Method in brief: as §1

blackgrass [18] = assay: Test C postemergence; type: in vivo, Alopecurus myosuroides; details: 10 days, 0 to 100 scale (0 no effect, 100 complete control)
Method in brief: as §1

ragweed [19] = assay: Test C postemergence; type: in vivo, Ambrosia artemisiifolia; details: 10 days, 0 to 100 scale (0 no effect, 100 complete control)
Method in brief: as §1

ryegrass, Italian [20] = assay: Test C preemergence; type: in vivo, Lolium multiflorum
Method in brief: as §1

corn [21] = assay: Test C postemergence; type: in vivo, Zea mays; details: 10 days, 0 to 100 scale (0 no effect, 100 complete control)
Method in brief: as §1

ducksalad = assay: Test D flooded paddy test; type: in vivo, Heteranthera limosa; details: 250 g ai/ha, applied to paddy water, visual rating after 13 to 14 days, scale 0 to 100 (0 no effect, 100 complete control)
Method in brief: as §2

pigweed, palmer [22] = assay: Test C postemergence; type: in vivo, Amaranthus palmeri; details: 10 days, 0 to 100 scale (0 no effect, 100 complete control)
Method in brief: as §1

green foxtail [23] = assay: Test C preemergence; type: in vivo, Setaria viridis
Method in brief: as §1

horseweed = assay: Test C postemergence; type: in vivo, Erigeron canadensis; details: 10 days, 0 to 100 scale (0 no effect, 100 complete control)
Method in brief: as §1

[24] = 500 g ai/ha, preemergence, 0 to 100 scale (0 no effect, 100 complete control)
[25] = Preemergence, 125 g ai/ha, 0 to 100 scale, 0 no effect, 100 complete control

## CC(C)c1ncn(-c2cccc(C(=O)N3CC(C(F)(F)F)Oc4c(Cl)cccc43)c2)n1 (stereo not shown) [Compound 348]
ryegrass, Italian [1]; 500 g ai/ha, postemergence
  Plant response rating, Ryegrass, Italian: 70
ryegrass, Italian [1]; Postemergence, 125 g ai/ha
  Plant response rating, Ryegrass, Italian: 30
Barnyardgrass [2]; [24]
  Barnyardgrass plant response rating: 100
Barnyardgrass [2]; [25]
  Plant response rating, Barnyardgrass: 60
galium; 500 g ai/ha, postemergence
  Plant response rating, Galium: 100
galium; Postemergence, 125 g ai/ha
  Plant response rating, Galium: 100
rice
  Plant response rating, Rice (Flood): 0
Ragweed [3]; [24]
  Ragweed plant response rating: 20
Ragweed [3]; [25]
  Plant response rating, Ragweed: 20
Soybean [4]; [24]
  Soybean plant response rating: 80
Soybean [4]; [25]
  Plant response rating, Soybean: 40
Wheat [5]; [24]
  Wheat plant response rating: 80
Wheat [5]; [25]
  Plant response rating, Wheat: 50
Wheat [6]; 500 g ai/ha, postemergence
  Plant response rating, Wheat: 30
Wheat [6]; Postemergence, 125 g ai/ha
  Plant response rating, Wheat: 10
Barnyardgrass [7]
  Plant response rating, Barnyardgrass (Flood): 30
pigweed, palmer [8]; [24]
  Pigweed, Palmer plant response rating: 100
pigweed, palmer [8]; [25]
  Plant response rating, Pigweed, Palmer: 100
Corn [9]; [24]
  Corn plant response rating: 0
Corn [9]; [25]
  Plant response rating, Corn: 0
Blackgrass [10]; [24]
  Blackgrass plant response rating: 90
Blackgrass [10]; [25]
  Plant response rating, Blackgrass: 50
oat, wild [11]; 500 g ai/ha, postemergence
  Plant response rating, Oat, Wild: 60
oat, wild [11]; Postemergence, 125 g ai/ha
  Plant response rating, Oat, Wild: 20
Kochia [12]; 500 g ai/ha, postemergence
  Plant response rating, Kochia: 100
Kochia [12]; Postemergence, 125 g ai/ha
  Plant response rating, Kochia: 70
oat, wild [13]; [24]
  Oat, Wild plant response rating: 90
oat, wild [13]; [25]
  Plant response rating, Oat, Wild: 60
Kochia [14]; [24]
  Kochia plant response rating: 100
Kochia [14]; [25]
  Plant response rating, Kochia: 90
Soybean [15]; 500 g ai/ha, postemergence
  Plant response rating, Soybean: 100
Soybean [15]; Postemergence, 125 g ai/ha
  Plant response rating, Soybean: 100
Green foxtail [16]; 500 g ai/ha, postemergence
  Plant response rating, Foxtail, Green: 70
Green foxtail [16]; Postemergence, 125 g ai/ha
  Plant response rating, Foxtail, Green: 50
sedge, umbrella
  Plant response rating, Sedge, Umbrella (Flood): 45
Barnyardgrass [17]; 500 g ai/ha, postemergence
  Plant response rating, Barnyardgrass: 40
Barnyardgrass [17]; Postemergence, 125 g ai/ha
  Plant response rating, Barnyardgrass: 10
Blackgrass [18]; 500 g ai/ha, postemergence
  Plant response rating, Blackgrass: 100
Blackgrass [18]; Postemergence, 125 g ai/ha
  Plant response rating, Blackgrass: 70
Ragweed [19]; 500 g ai/ha, postemergence
  Plant response rating, Ragweed: 60
Ragweed [19]; Postemergence, 125 g ai/ha
  Plant response rating, Ragweed: 30
ryegrass, Italian [20]; [24]
  Ryegrass, Italian plant response rating: 100
ryegrass, Italian [20]; [25]
  Plant response rating, Ryegrass, Italian: 90
Corn [21]; 500 g ai/ha, postemergence
  Plant response rating, Corn: 30
Corn [21]; Postemergence, 125 g ai/ha
  Plant response rating, Corn: 10
ducksalad
  Plant response rating, Ducksalad (Flood): 75
pigweed, palmer [22]; 500 g ai/ha, postemergence
  Plant response rating, Pigweed, Palmer: 100
pigweed, palmer [22]; Postemergence, 125 g ai/ha
  Plant response rating, Pigweed, Palmer: 90
Green foxtail [23]; [24]
  Foxtail, Green plant response rating: 100
Green foxtail [23]; [25]
  Plant response rating, Foxtail, Green: 100
horseweed; 500 g ai/ha, postemergence
  Plant response rating, Horseweed: 40
horseweed; Postemergence, 125 g ai/ha
  Plant response rating, Horseweed: 0
